Experimental data taken from patent US11466066B2, “Variants of human BMP7 protein” (ELI LILLY AND COMPANY, priority 2017, dated 2022).

Experiments:
[1] = system: MFc7 mouse renal myofibroblasts; test: Alkaline phosphatase stimulation in MFc7 cells; format: cell-based; details: 1 μg/ml pro-BMP7, 1 μM ATRA, 48 hours
Procedure: (§1) 3T3-L1 fibroblasts and MFc7 mouse renal myofibroblasts may be grown essentially as described in Example 2 above. After 48 hours the cells may be washed with PBS prior to the addition of either DMEM/2% dialyzed FBS or OPTI-MEM/2% dialyzed FBS medium containing control vehicle, 1 μg/ml human proBMP7 protein, 1 μM ATRA or a combination of both human BMP7 protein (1 μg/ml) and ATRA (1 μM) may be added for 48 hours. After treatment the cells may be rinsed with PBS and stored at −80° C. for approximately 20 minutes. The cells may be thawed at 37° C. for 30 minutes and 100 μl of PNPP may be added to every well. The plate may be incubated at 37° C. for 1 hour. The absorbance at 405 nm may be read on a plate reader.

SOX2 = SOX2 expression in GBM cells; format: cell-based, human; details: ATRA 1 μg/ml, F9 100 ng/mL
Procedure: (§2) Glioblastoma multiforme stem cells (GBMs) may be obtained from patients with primitive brain tumors undergoing complete or partial surgical resection. These cells may be maintained as neurospheres in defined media with 3.34 g/L of DMEM and 2.66 g/L F12 reconstituted in sterile distilled water and containing 1% glucose, 0.12% sodium bicarbonate, 5 mM hepes, 2 mM L-glutamine, 4 mg/L heparin, 10 ng/mL bFGF, 20 ng/mL EGF, 0.4% BSA, 100 μg/mL apotransferrin, 25 μg/mL insulin, 60 uM putrescine, 30 nM sodium selenite, and 20 nM progesterone. Cells may be cultured at 37° C. in 5% CO2. Cells may be plated by enzymatically dispersing spheres into single cells with a 2-5 minute incubation at 37° C. with TrypLE™ Express cell dissociation enzyme. The enzyme may be quenched with Dulbecco's Phosphate Buffered Saline (DPBS) containing Ca+ and Mg+. Then the cells may centrifuged to remove TrypLE and DPBS and resuspended as single cells in defined media and counted by a Coulter Z2 Cell and Particle counter.
(§3) Single GBM cells may be plated in defined media at 2×10^6 cells/15 mL/T75 flask for high content imaging or 5×10^5 cells/2 mL/well in 6-well plates for light microscopy. Cells may be treated with 0.01% DMSO, 1 μg/mL ATRA, 100 ng/mL of a human BMP7 protein variant of the present invention (e.g., human BMP7 protein variant F9 (SEQ ID NO: 8)), or a combination of 1 μg/mL ATRA and 100 ng/mL human BMP7 protein variant of the present invention. For light microscopy imaging of the effect of control BMPs (BMP2 and BMP4), cells may be plated as above in 6-well dishes and treated with 0.01% DMSO, 1 μg/mL ATRA, 100 ng/mL BMP2, 50 ng/mL BMP4, or a combination of BMPs at the same concentrations plus 1 μg/mL ATRA. Example images may be captured at 3, 7, and 30 days post-treatment on a Leica DMIRM inverted microscope using a 20× objective, for example. For growth longer than 7 days, media and treatment may be changed approximately every 10 days beginning at day 10. […]

3T3-L1 fibroblasts = test: Alkaline phosphatase stimulation in 3T3-L1 cells; format: cell-based; details: 1 μg/ml pro-BMP7, 1 μM ATRA, 48 hours
Procedure: as §1

Ki67 = Ki67 expression in GBM cells; format: cell-based, human; details: ATRA 1 μg/ml, F9 100 ng/mL
Procedure: as §2, §3

[2] = Thermal unfolding assay (circular dichroism); format: physicochemical; details: CD at 208 nm; 10 mM citrate, 300 mM NaCl, pH 7.4
Procedure: The effect of temperature on the conformational stability of human BMP7 protein variants may be followed by circular dichroism (CD) on a Jasco J-810 instrument equipped with a thermoelectric sample compartment. Briefly stated, 0.2-1.0 mg/mL pro-BMP7 may be formulated in storage buffer (10 mM citrate, 300 mM NaCl, pH 7.4) and loaded into a 0.02 cm path-length CD cuvette. The sample may be heated from 20 to 80° C. at a linear rate of 1° C./minute and the resulting CD signal at 208 nm may be recorded every 0.2° C. using a 1 second signal response time. A non-linear fit to equation 1 may be performed by the program JMP (SAS Institute Inc, Cary, N.C.) to obtain the thermal unfolding mid-point (Tm).
[formula] where, Yu and Yf are fit and represent the Y-intercept of the pre- and post-transition baselines, respectively. Mu and Mf are fit and represent the slope of the pre- and post-transition baselines, respectively. Hm and S are fit and represent enthalpy and entropy, respectively. T is the measured temperature in Kelvin units.

DLD1 C5 tumor xenografts = test: DLD1 C5 mouse xenograft tumor model; format: in vivo; details: saline-treated, then irinotecan treated animals (20 mg/kg, M and Th)
Procedure: Female athymic nude mice age 6- to 7-weeks old are available commercially, including from Harlan Laboratories (Indianapolis, Ind.). The mice are allowed to acclimate for one week and fed ad libitum on a normal low fat (4.5%) diet, which may be continued for the duration of the study. Tumor cells are available for purchase from ATCC and may be cultured in cell culture media such as RPMI 1640 (Life Technologies) with L-glutamine, 25 mM HEPES supplemented with 10% FBS and 1 mM Na Pyruvate. Cells may be detached, washed with serum free medium and then resuspended at a final concentration of 50×10^6 cells/mL in serum free RPMI 1640. Tumor cells, approximately 5×106 may be injected subcutaneously in the rear flank of subject mice in a 1:1 mixture of serum free growth medium and Matrigel (Becton Dickinson, Bedford, Mass.). Tumor and body weight measurements may be performed twice weekly. Prior to treatment, mice can be randomized based on tumor size using a randomization algorithm. Treatments may be started when the average tumor volume reaches 100 mm3. […]
All test or control proteins are prepared in phosphate Buffered Saline (PBS) prior to dose. Tumor size may be determined by caliper measurements. […] Log volume data can be analyzed with two-way repeated measures ANOVA by time and treatment using SAS PROC MIXED software (SAS Institutes Inc, Cary, N.C.). […]

RAR gamma = RAR gamma protein expression, Western Blot; format: cell-based, mouse; details: MFc7 and 3T3-L1 cell lines; 1 μg/mL, 48 hours; Western Blot intensity
Procedure: (§4) 3T3-L1 fibroblasts and MFc7 mouse renal myofibroblasts may be maintained under routine cell culture conditions in DMEM/10% calf serum medium or OPTI-MEM/10% FBS medium, respectively. The cells may be plated in 10 cm tissue culture plates at a seeding density of 500,000 cells/plate. After 48 hours, the cells may be washed with PBS prior to the addition of either DMEM/2% dialyzed FBS or OPTI-MEM/2% dialyzed FBS medium containing 1 μg/mL human BMP7 protein or 1 μg/mL of a human BMP7 protein variant. The cells may be incubated for 48 hours and then rinsed with ice-cold PBS, and then lysed with Protein Extraction Reagent. Then lysates may be centrifuged at 14,000×g for 15 minutes. A Bradford protein assay may be performed to determine the protein concentration of each lysate. Equivalent amounts of protein (for example, 25 μg) may be resolved by SDS-PAGE and then transferred to nitrocellulose membranes for Western Blot analysis. The membranes may be probed with an anti-RAR alpha antibody and/or an anti-RAR gamma antibody.

RAR alpha = RAR alpha protein expression, Western Blot; format: cell-based, mouse; details: MFc7 and 3T3-L1 cell lines; 1 μg/mL, 48 hours; Western Blot intensity
Procedure: as §4

Molecule: CC1=C(/C=C/C(C)=C/C=C/C(C)=C/C(=O)O)C(C)(C)CCC1 [ATRA, All-trans retinoic acid, reference compound]
- fold change in alkaline phosphatase stimulation relative to control vehicle treated cells [1]: 8 fold
- SOX2 percent responders normalized to vehicle control (SOX2; GBM clone CL-1, Day 3): 97%
- SOX2 percent responders normalized to vehicle control (SOX2; GBM clone CL-61, Day 0): 89%
- SOX2 percent responders normalized to vehicle control (SOX2; GBM clone Cl-1, Day 25): 97%
- fold change in alkaline phosphatase stimulation relative to control vehicle treated cells (3T3-L1 fibroblasts): 2.9 fold
- Ki67 percent responders normalized to vehicle control (Ki67; GBM clone CL-1, Day 3): 99%
- Ki67 percent responders normalized to vehicle control (Ki67; GBM clone CL-61, Day 0): 83%
- Ki67 percent responders normalized to vehicle control (Ki67; GBM clone Cl-1, Day 25): 101%

Molecule: human pro-BMP7 protein variant V114M: human pro-BMP7 protein variant with V114M in the mature domain
- thermal unfolding mid-point (Tm) [2]: 64.5 °C

Molecule: CCc1c2c(nc3ccc(OC(=O)N4CCC(N5CCCCC5)CC4)cc13)-c1cc3c(c(=O)n1C2)COC(=O)[C@]3(O)CC [irinotecan, reference compound]
- tumor response (DLD1 C5 tumor xenografts): tumor growth

B1: human BMP7 protein: wild type human BMP7 protein of Example 2; pro or mature form not stated (protein, UniProt P18075 293-431, looked up)
Bone morphogenetic protein 7: STGSKQRSQNRSKTPKNQEALRMANVAENSSSDQRQACKKHELYVSFRDLGWQDWIIAPEGYAAYYCEGECAFPLNSYMNATNHAIVQTLVHFINPETVPKPCCAPTQLNAISVLYFDDSSNVILKKYRNMVVRACGCH
- RAR gamma protein expression (RAR gamma): stimulated
- RAR alpha protein expression (RAR alpha): stimulated
